Structures can show the parent of a compound that is named as a salt.
target: T1, PAF receptor (Oryctolagus cuniculus, UniProt G1TEI7); assay: PAF receptor binding assay ([3H]C18-PAF, rabbit platelet membranes); conditions: inhibition of specific binding of 0.6 nM [3H]C18-PAF to rabbit platelet membranes, 60 min, room temperature; Ki calculated from IC50 by Cheng and Prusoff; read-out: PAF Receptor Binding Activity K1
T1 construct: platelet membranes where prepared by centrifugation and washing; tissue Pel-Freez (Rogers, AR) (whole rabbit blood); host or cells: rabbit platelet membranes
T1 sequence (G1TEI7 1-342): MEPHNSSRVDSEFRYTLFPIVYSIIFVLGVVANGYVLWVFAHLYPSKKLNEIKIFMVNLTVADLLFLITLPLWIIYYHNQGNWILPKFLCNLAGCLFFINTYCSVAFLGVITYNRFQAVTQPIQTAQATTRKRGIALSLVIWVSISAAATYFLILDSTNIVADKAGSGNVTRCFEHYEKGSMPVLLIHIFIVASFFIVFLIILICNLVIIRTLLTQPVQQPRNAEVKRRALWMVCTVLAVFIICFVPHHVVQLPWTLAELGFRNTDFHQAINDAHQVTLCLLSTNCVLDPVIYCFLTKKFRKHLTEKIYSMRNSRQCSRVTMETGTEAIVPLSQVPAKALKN
Method: The ability of representative compounds of the present invention to inhibit PAF activity was determined in an in vitro test using the following method.
Citrated whole rabbit blood was obtained from Pel-Freez (Rogers, AR). Rabbit platelets where prepared by centrifugation and washing. The platelets where lysed by freeze-thawing and sonication; platelet membranes where prepared by centrifugation and washing. Final membrane preparations where stored frozen in 10 mM Tris/5 mM MgCl2 /2 mM EDTA (TME buffer, pH 7.0) with 0.25 M sucrose added for membrane stabilization.
The final volume of the assay was 100 μl. The assay was conducted in Millititre-GV™ (Millipore Corp.) filtration plates; incubation time was for 60 minutes at room temperature (22°-23° C.). "Specific binding" was operationally defined as the arithmetic difference between "total binding" of 0.6 nM [^3 H]C18 -PAF (in the absence of added PAF) and "nonspecific binding" (in the presence of 1 μM PAF). After the prescribed incubation, platelet membranes where filtered under vacuum and washed with 1 millilitre of "binding buffer". The filters was dried and removed. The bound radioactivity was quantitated with a Berthold TLC-Linear Analyzer model LB2842.
Experiments where repeated at least once.

Point of comparison: CN(C)C(=O)n1cc(C(=O)c2ccn3c2CSC3c2cccnc2)c2ccc(-c3cccc(S(N)(=O)=O)c3)cc21 (centres unmarked) [Example 80, 3-(Pyridin-3-yl)-7-[1-N,N-dimethylcarbamoyl-6-(3-aminosulfonylphenyl)indol-3-ylcarbonyl]-1H,3H-pyrrolo[1,2-c]thiazole], Ki 45 nM. Against it:
- 3-(Pyridin-3-yl)-7-[1-N-sulfoethylcarbamoyl-6-(4-fluorophenyl)indol- 3-ylcarbonyl]-1H,3H-pyrrolo[1,2-c]thiazole [Example 100] — higher, > 300 nM
- NCCn1cc(C(=O)c2ccn3c2CSC3c2cccnc2)c2ccc(-c3ccc(F)cc3)cc21 (centres unmarked) [Example 70, 3-(Pyridin-3-yl)-7-[1-(2-aminoethyl)-6-(4-fluorophenyl)indol-3-ylcarbonyl]-1H,3H-pyrrolo[1,2-c]thiazole Hydrochloride] — 17-fold lower, 2.6 nM

same assay, conditions: read-out: PAF Receptor Binding Activity K1

Point of comparison: Cn1cc(C(=O)c2ccn3c2CSC3c2cccnc2)c2ccc(OCc3ccccc3)cc21 (centres unmarked) [Example 21, 3-(Pyridin-3-yl)-7-(1-methyl-6-phenylmethoxyindol-3-ylcarbonyl)-1H,3H-pyrrolo[1,2-c]thiazole], Ki 15 nM. Against it:
- O=C(c1ccn2c1CSC2c1cccnc1)c1cn(C(=O)N2CCOCC2)c2ccccc12 (centres unmarked) [Example 11, 3-(Pyridin-3-yl)-7-[1-(morpholin-4-ylcarbonyl)indol-3-yl]carbonyl-1H,3H-pyrrolo[1,2-c]thiazole] — 15-fold higher, 225 nM
- CCNC(=O)n1cc(C(=O)c2ccn3c2CSC3c2cccnc2)c2ccc(-c3ccc(F)cc3)cc21 (centres unmarked) [Example 99] — within 1.5-fold, 19 nM
- CNC(=O)n1cc(C(=O)c2ccn3c2CSC3c2cccnc2)c2ccc(-c3ccc(OC)cc3)cc21 (centres unmarked) [Example 43, 3-(Pyridin-3-yl)-7-[1-N-methylcarbamoyl-6-(4-methoxyphenyl)indol-3-ylcarbonyl]-1H,3H-pyrrolo[1,2-c]thiazole] — 1.7-fold higher, 26 nM
- CS(=O)(=O)n1cc(C(=O)c2ccn3c2CSC3c2cccnc2)c2ccc(-c3ccc(F)cc3)cc21 (centres unmarked) [Example 51, 3-(Pyridin-3-yl)-7-[1-methanesulfonyl-6-(4-fluorophenyl)indol-3-ylcarbonyl]-1H,3-pyrrolo[1,2-c]thiazole] — 8-fold higher, 120 nM
- NC(=O)Cn1cc(C(=O)c2ccn3c2CSC3c2cccnc2)c2ccc(-c3ccc(F)cc3)cc21 (centres unmarked) [Example 95, 3-(Pyridin-3-yl)-7-[1-carbamoylmethyl-6-(4-fluorophenyl)indol-3-ylcarbonyl]-1H,3H-pyrrolo[1,2-c]thiazole] — 1.5-fold lower, 10 nM
- Cn1cc(C(=O)c2ccn3c2CSC3c2ccc[n+]([O-])c2)c2ccc(OCc3ccccc3)cc21 (centres unmarked) [Example 58, 3-(1-Oxide-pyridin-3-yl)-7-(1-methyl-6-phenylmethoxyindol-3-ylcarbonyl)-1H,3H-pyrrolo[1,2-c]thiazole] — 3.3-fold higher, 49 nM
- CC(=O)OC[n+]1cccc(C2SCc3c(C(=O)c4cn(C(=O)N(C)C)c5cc(-c6ccc(F)cc6)ccc45)ccn32)c1 (centres unmarked) [Example 92, 3-(1-Acetoxymethylpyridin-3-yl)-7-[1-N,N-dimethylcarbamoyl-6-(4-fluorophenyl)indol-3-ylcarbonyl]-1H,3H-pyrrolo[1,2-c]thiazole] — within 1.5-fold, 19 nM
- CN(C)C(=O)n1cc(C(=NN)c2ccn3c2CSC3c2cccnc2)c2ccc(-c3ccc(F)cc3)cc21 (centres unmarked) [Example 104] — 6.8-fold lower, 2.2 nM
- O=C(c1ccn2c1CSC2c1cccnc1)c1cn(C(=O)NCCO)c2cc(-c3ccc(F)cc3)ccc12 (centres unmarked) [Example 62, 3-(Pyridin-3-yl)-7-[1-N-(2-hydroxyethyl)carbamoyl-6-(4-fluorophenyl)indol-3-ylcarbonyl]-1H,3H-pyrrolo[1,2-c]thiazole] — 2-fold lower, 7.4 nM
- CN(C)C(=O)n1cc(C(=O)c2ccn3c2CSC3c2cccnc2)c2ccc(-c3ccccc3)cc21 (centres unmarked) [Example 52, 3-(Pyridin-3-yl)-7-(1-N,N-dimethylcarbamoyl-6-phenylindol-3-ylcarbonyl)-1H,3H-pyrrolo[1,2-c]thiazole Hydrochloride] — within 1.5-fold, 16 nM
- O=C(c1ccn2c1CSC2c1cccnc1)c1cn(Cc2nnn[nH]2)c2cc(-c3ccc(F)cc3)ccc12 (centres unmarked) [Example 97, 3-(Pyridin-3-yl)-7-[1-(1H-tetrazol-5-ylmethyl)-6-(4-fluorophenyl)indol-3-ylcarbonyl]-1H,3H-pyrrolo[1,2-c]thiazole] — within 1.5-fold, 19 nM
- CNC(=O)n1cc(C(=O)c2ccn3c2C(C)(C)SC3c2cccnc2)c2ccc(-c3ccc(OC)cc3)cc21 (centres unmarked) [Example 32, 1,1-Dimethyl-3-(pyridin-3-yl)-7-[1-N-methylcarbamoyl-6-(4-methoxyphenyl)indol-3-ylcarbonyl]-1H,3H-pyrrolo[1,2-c]thiazole] — 10-fold higher, 150 nM
- CC(C)(C)OC(=O)n1cc(C(=O)c2ccn3c2CSC3c2cccnc2)c2ccccc21 (centres unmarked) [Example 9, 3-(Pyridin-3-yl)-7-(1-tert-butyloxycarbonylindol-3-yl)carbonyl-1H,3H-pyrrolo[1,2-c]thiazole] — 7.3-fold higher, 110 nM
- CN(C)C(=O)n1cc(C(=O)c2ccn3c2CSC3c2ccc[n+]([O-])c2)c2ccc(-c3ccccc3)cc21 (centres unmarked) [Example 34, 3-(1-Oxide-pyridin-3-yl)-7-(1-N,N-dimethylcarbamoyl-6-phenylindol-3-ylcarbonyl)-1H,3H-pyrrolo[1,2-c]thiazole] — within 1.5-fold, 14 nM
- O=C(c1ccn2c1CSC2c1cccnc1)c1c[nH]c2c(OCc3ccccc3)cccc12 (centres unmarked) [Example 5, 3(Pyridin-3-yl)-7-(7-phenylmethoxyindol-3-yl)carbonyl-1H,3H-pyrrolo[1,2-c]thiazole] — 6-fold higher, 90 nM
- CC1(C)SC(c2cccnc2)n2ccc(C(=O)c3c[nH]c4ccccc34)c21 (centres unmarked) [Example 17, 1,1-Dimethyl-3-(pyridin-3-yl)-7-(indol-3-ylcarbonyl)-1H,3H-pyrrolo[1,2-c]thiazole] — 80-fold higher, 1200 nM
- CN(C)C(=O)n1cc(C(=O)c2ccn3c2C[S+]([O-])C3c2ccc[n+]([O-])c2)c2ccc(-c3ccc(F)cc3)cc21 (centres unmarked) [Example 103, 2-Oxide-3-(1-oxide-pyridin-3-yl)-7-[1-N,N-dimethylcarbamoyl-6-(4-fluorophenyl)indole-3-ylcarbonyl]-1H,3H-pyrrolo[1,2-c]thiazole] — 5.7-fold higher, 85 nM
- COc1cc(-c2ccc3c(C(=O)c4ccn5c4CSC5c4cccnc4)cn(C(=O)N(C)C)c3c2)cc(OC)c1OC (centres unmarked) [Example 48, 3-(Pyridin-3-yl)-7-[1-N,N-dimethylcarbamoyl-6-(3,4,5-trimethoxyphenyl)indol-3-ylcarbonyl]-1H,3H-pyrrolo[1,2-c]thiazole] — 1.9-fold lower, 8 nM
- O=C(c1ccn2c1C[S+]([O-])C2c1cccnc1)c1c[nH]c2ccccc12 (centres unmarked) [Example 14, 2-Oxide-3-(pyridin-3-yl)-7-(indol-3-ylcarbonyl)-1H,3H-pyrrolo[1,2-c]thiazole] — 160-fold higher, 2400 nM
- O=C(c1ccn2c1CSC2c1cccnc1)c1c[nH]c2cc(-c3ccccc3)ccc12 (centres unmarked) [Example 10, 3-(Pyridin-3-yl)-7-(6-phenylindol-3-yl)carbonyl-1H,3H-pyrrolo[1,2-c]thiazole] — 6.3-fold higher, 95 nM
- CN(C)C(=O)n1cc(C(=O)c2ccn3c2CSC3c2cccnc2)c2ccc(-c3ccc(C(=O)NN)cc3)cc21 (centres unmarked) [Example 91, 3-(1-Oxide-pyridin-3-yl)-7-[1-N,N-dimethylcarbamoyl-6-(4-hydrazinylcarbonylphenyl)indol-3-ylcarbonyl]-1H,3H-pyrrolo[1,2-c]thiazole] — within 1.5-fold, 20 nM
- CN(C)C(=O)n1cc(C(=O)c2ccn3c2CSC3c2cccnc2)c2ccccc21 (centres unmarked) [Example 2, 3-(Pyridin-3-yl)-7-(1-N,N-dimethylcarbamoylindol-3-yl)carbonyl-1H,3H-pyrrolo[1,2-c]thiazole] — 130-fold higher, 2000 nM

Reference: patent US5459152A, “Platelet activating factor antagonists” (Abbott Laboratories, priority 1993, dated 1995)
